We go through five compounds from patent publication US5459132A, “N6-[(Imidazo[1,2-a]pyridin-3-yl)ethyl]adenosines, their 5'-uronamide analogues and pharmaceutical compositions” (Laboratoires UPSA, priority 1994, dated 1995).

Each structure is given as a SMILES string.

One experiment relates to mice. In words: Phenylbenzoquinone test (analgesic activity). Type of experiment: in vivo. The following applies: one hour before phenylbenzoquinone injection, 5 minutes observation. How it is done:
2. Phenylbenzoquinone test
The intraperitoneal injection of phenylbenzoquinone causes twisting and stretching movements in mice. Analgesics prevent or reduce this syndrome, which can be considered as the exteriorization of diffuse abdominal pain.
A 0.02% solution of phenylbenzoquinone in water is administered in a volume of 1 ml/100 g.
The products of the Examples are administered orally one hour before the injection of phenylbenzoquinone.
The stretching and twisting movements are counted for each mouse over an observation period of 5 minutes.

For the next experiment, the system named is Balbc 3T3 fibroblasts. In words: Inhibition of the cell proliferation induced by a growth factor (PDGF) in Balbc 3T3 fibroblasts, ^3H-thymidine incorporation. Type of experiment: cell-based. The note with it: for % inhibition of the incorporation of ^3H-thymidine stimulated by PDGF, 1E-6M: test molecule 1E-6M. The method, then:
Measurement of the inhibition of the cell proliferation induced by a growth factor in Balbc […] 3T3 fibroblasts
Inhibition of the cell proliferation induced by a growth factor (for example PDGF) is evaluated by measuring the incorporation of ^3 H-thymidine into Balbc 3T3 fibroblasts.
The Balbc 3T3 fibroblasts are cultivated at 37° C. with 5% of CO2 up to the point of subconfluence and are then placed for 18 hours under rest conditions in a serum-impoverished medium. They are subsequently pretreated for one hour with the test molecule (10^-5 M and/or 10^-6 M) and then stimulated for 22 hours with a growth factor (for example PDGF). ^3 H-Thymidine is incorporated over the last 2 hours. All these steps are performed at 37° C. with 5% of CO2.
The reaction is terminated by sucking off the reaction medium, detaching the cells and then filtering the lyzed cells through glass fiber filters.
The results are expressed as the percentage inhibition of the stimulation of ^3 H-thymidine incorporation induced by the growth factor.

For the compound `Cc1ccc(C)c(COc2cccn3c(CCNc4ncnc5c4ncn5[C@@H]4O[C@H](C(=O)NC5CC5)[C@@H](O)[C@H]4O)cnc23)c1` [Example 34, β-D-Ribofuranuronamido-N-cyclopropyl-1-deoxy-1-[6-[[2-[[8-(2,5-dimethylphenyl)methoxy]imidazo[1,2-a]pyridin-3-yl]ethyl]amino]-9H-purin-9-yl]], the “Phenylbenzoquinone test % inhibition at 30 mg/kg p.o.” value with mice amounted to 57%. Besides, the “% inhibition of the incorporation of ^3H-thymidine stimulated by PDGF, 1E-6M” value with Balbc 3T3 fibroblasts turned out to be 72%. With `Cc1ccc(C)c(COc2cccn3c(CCNc4ncnc5c4ncn5[C@@H]4O[C@H](C(=O)NC5CC5)[C@@H](O)[C@H]4O)c(C)nc23)c1` [Example 36, β-D-Ribofuranuronamido-N-cyclopropy-1-deoxy-1-[6-[[2-[[8-(2,5-dimethylphenyl)methoxy]-2-methylimidazo[1,2-a]pyridin-3-yl]ethyl]amino]-9H-purin-9-yl]], the “Phenylbenzoquinone test % inhibition at 30 mg/kg p.o.” value in the experiment on mice turned out to be 63%. Also, the “% inhibition of the incorporation of ^3H-thymidine stimulated by PDGF, 1E-6M” value in the experiment on Balbc 3T3 fibroblasts amounted to 80%.

`O=C(NC1CC1)[C@H]1O[C@@H](n2cnc3c(NCCc4cnc5c(OCc6ccccc6)cccn45)ncnc32)[C@H](O)[C@@H]1O` [Example 33, β-D-Ribofuranuronamido-N-cyclopropyl-1-deoxy-1-[6-[[2-[8-(phenylmethoxy)imidazo[1,2-a]pyridin-3-yl]ethyl]amino]-9H-purin-9-yl]]: the “Phenylbenzoquinone test % inhibition at 30 mg/kg p.o.” value in the experiment with mice worked out at 39%. Turning to `O=C(NC1CC1)[C@H]1O[C@@H](n2cnc3c(NCCc4cnc5c(OC6CCCC6)cccn45)ncnc32)[C@H](O)[C@@H]1O` [Example 37, β-D-Ribofuranuronamido-N-cyclopropyl-1-deoxy-1-[6-[[2-[8-(cyclopentoxy)imidazo[1,2-a]pyridin-3-yl]ethyl]amino]-9H-purin-9-yl]], in the experiment with mice, the “Phenylbenzoquinone test % inhibition at 30 mg/kg p.o.” value turned out to be 57%. Also, the “% inhibition of the incorporation of ^3H-thymidine stimulated by PDGF, 1E-5M” value with Balbc 3T3 fibroblasts (test molecule 1E-5M) is given as 63%.

For the compound `COCCOc1cccn2c(CCNc3ncnc4c3ncn4[C@@H]3O[C@H](C(=O)NC4CC4)[C@@H](O)[C@H]3O)cnc12` [Example 35, β-D-Ribofuranuronamido-N-cyclopropyl-1-deoxy-1-[6-[[2-[8-(2-methoxyethoxy)imidazo[1,2-a]pyridin-3-yl]ethyl]amino]-9H-purin-9-yl]], the “Phenylbenzoquinone test % inhibition at 30 mg/kg p.o.” value with mice is given as 25%.
